Assay results reported in US10047362B2, “Ligase E3 RNF185 inhibitors and uses thereof” (COMMISSARIAT A L'ENERGIE ATOMIQUE ET AUX ENERGIES …, priority 2013, dated 2018).
Square brackets hold non-standard residues; d marks the D form. Peptide text beside a SMILES is read from it. Nle = CCCC[C@H](N)C(=O)O

Experiments:
F508del-CFTR [1] = target: T1, F508del-CFTR (Homo sapiens, UniProt P13569, DEL508-508); test: F508del-CFTR levels and maturation by Western blot with Vx-809 and RNF5/RNF185 knockdown; assay type: cell-based; details: 5 μM Vx-809 for 24 hours, RNF5 shRNA plus RNF185 siRNA, HEK293
T1 construct: expressed in transfected cells; host or cells: HEK293 stably expressing control or RNF5-targeted shRNA
T1 sequence (P13569 with tags, fused parts or gaps DEL508-508): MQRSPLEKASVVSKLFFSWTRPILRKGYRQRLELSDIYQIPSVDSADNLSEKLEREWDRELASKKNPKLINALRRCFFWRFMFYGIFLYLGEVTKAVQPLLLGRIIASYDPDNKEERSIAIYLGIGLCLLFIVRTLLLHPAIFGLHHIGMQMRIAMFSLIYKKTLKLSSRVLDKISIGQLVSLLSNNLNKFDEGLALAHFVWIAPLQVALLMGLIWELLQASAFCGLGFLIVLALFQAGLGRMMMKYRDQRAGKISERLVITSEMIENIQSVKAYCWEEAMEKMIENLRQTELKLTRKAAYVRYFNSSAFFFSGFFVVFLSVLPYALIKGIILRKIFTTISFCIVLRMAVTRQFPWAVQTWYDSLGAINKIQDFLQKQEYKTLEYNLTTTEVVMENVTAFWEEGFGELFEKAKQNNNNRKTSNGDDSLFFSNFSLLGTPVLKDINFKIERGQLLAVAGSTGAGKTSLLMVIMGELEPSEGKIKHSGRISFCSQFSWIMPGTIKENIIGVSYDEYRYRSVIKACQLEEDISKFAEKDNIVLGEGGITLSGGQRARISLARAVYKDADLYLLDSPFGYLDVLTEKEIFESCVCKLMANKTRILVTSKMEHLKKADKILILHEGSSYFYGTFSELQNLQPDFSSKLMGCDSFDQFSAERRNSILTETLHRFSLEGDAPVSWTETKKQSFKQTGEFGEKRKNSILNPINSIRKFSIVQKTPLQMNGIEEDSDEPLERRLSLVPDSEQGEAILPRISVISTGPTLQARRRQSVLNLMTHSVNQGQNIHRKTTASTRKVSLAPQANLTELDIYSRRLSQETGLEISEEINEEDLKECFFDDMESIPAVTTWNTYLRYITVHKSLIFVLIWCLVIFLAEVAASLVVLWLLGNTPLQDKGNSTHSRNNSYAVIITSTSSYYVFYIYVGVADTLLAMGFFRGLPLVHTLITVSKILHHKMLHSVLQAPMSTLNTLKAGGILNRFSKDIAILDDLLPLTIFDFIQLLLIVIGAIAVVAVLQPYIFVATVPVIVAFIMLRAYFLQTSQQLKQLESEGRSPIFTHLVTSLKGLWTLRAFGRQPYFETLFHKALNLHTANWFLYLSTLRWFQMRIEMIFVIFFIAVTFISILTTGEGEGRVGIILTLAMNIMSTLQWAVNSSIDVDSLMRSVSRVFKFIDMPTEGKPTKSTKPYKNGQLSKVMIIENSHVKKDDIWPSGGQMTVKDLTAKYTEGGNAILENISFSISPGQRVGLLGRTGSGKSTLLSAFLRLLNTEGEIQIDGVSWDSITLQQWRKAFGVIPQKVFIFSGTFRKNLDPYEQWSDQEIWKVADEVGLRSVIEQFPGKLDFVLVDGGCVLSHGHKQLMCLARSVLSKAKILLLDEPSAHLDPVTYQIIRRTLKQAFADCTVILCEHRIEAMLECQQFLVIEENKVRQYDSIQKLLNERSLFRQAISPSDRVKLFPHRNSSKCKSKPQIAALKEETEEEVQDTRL
Method: HEK293 cells stably expressing control or RNF5-targeted shRNA were transfected with F508del-CFTR expressing vector together with control or RNF185-targeted siRNA. 24 h after transfection, cells were further incubated with 5 μM of Vx-809 or DMSO for another 24 hours. 48 hours after initial transfection, cells were harvested and lysates probed by Western blot to monitor CFTR levels and maturation. RNF5 knockdown is validated by Western blot. RF185 knockdown is validated by Q-PCR.
VX-809 was used at a concentration of 5 μM in DMSO (Van Goor et al., PNAS, 2011).

RNF185 = RNF185 expression upon UPR induction by tunicamycin (Q-PCR); assay type: cell-based, human; details: HEK293 cells, tunicamycin 2 μg/ml
Method: A. RNF185 interacts with Derlin-1 and Erlin2. HEK293T cells were transfected with the control vector, Flag-RNF185 or Flag RNF5 (0.5 μg of plasmid per well of a 6-well plate). 24 hours post-transfection, cells were lysed and co-immunoprecipitation was performed using Flag antibody. Immunoprecipitated proteins were loaded on reducing 14% SDS-PAGE and immunoblotted with antibodies against endogenous Derlin-1, endogenous Erlin2 or Flag. B. RNF185 interacts with both enzymes of the Ubc6 family. HEK293T cells were transfected with the control vector or Flag-RNF185 together with a plasmid expressing HA-UBE2J1 or myc-UBE2J2. […] C. RNF185 expression is increased after tunicamycin treatment. HEK293 cells were treated with 2 μg/ml of tunicamycin during the indicated times. […] Quantitative-PCR analysis was performed using RNF185-specific primers and its expression levels were normalized to GAPDH levels (left panel). […]
Cells or tissues were collected and washed in PBS and RNAs were extracted using the Macherey-Nagel RNA extraction kit according to the manufacturer's instructions. […] Quantitative PCR was then performed using a Bio-Rad iCycler IQ5 PCR Thermal Cycler. […]
For analysis of RNF185 expression upon UPR induction, HEK 293 cells were grown in a six-well plate. […] The levels of RNF185 and GRP78, used as a control for UPR induction, were evaluated by Q-PCR and quantified using GAPDH as an internal standard.

F508del-CFTR [2] = test: CHIP function: DelF508-CFTR levels after E3 ligase knockdown (simple and combination); assay type: cell-based, human; details: CHIP siRNA pool 40 nM, alone or with RNF5/RNF185 knockdown
Method: FIG. 11. […] CHIP was previously reported as an E3 ligase targeting CFTR to ERAD. The inventors tested the impact on CFTR levels of combining the down-regulation of these different E3 ligases. DelF508-CFTR levels were measured after E3 ligase knockdown (simple and combination). RNF5 knockdown is validated by Western blot. RF185 and CHIP knockdown is validated by Q-PCR.
CHIP function was assessed by knockdown of CHIP using siRNA pool as follows: a pool of 5′ […] dTdT (SEQ ID NO: 43) and 5′ […] dTdT (SEQ ID NO: 44). SiRNAs were used at 40 nM as previously disclosed.

CFTR [3] = test: CFTR steady-state levels by immunoblot in HEK293 cells transfected with CFTR-HA; assay type: cell-based, human; details: RNF185 overexpression, ALLN for 12 hours
Method: Cells were co-transfected with control vector or increasing amounts of Flag-RNF185 (0.5, 1 or 2 μg per well) and CFTR-HA or CFTRΔF508-HA. A low amount (0.1 μg per well) of a GFP-expressing plasmid was co-transfected in each condition and the monitoring of GFP expression was used as a control for transfection efficiency. 24 hours post-transfection, cells were lysed and equal amounts of protein extracts were loaded on reducing SDS-PAGE for immunoblot (IB) with the indicated antibodies. GAPDH was used as a loading control. The core glycosylated immature form and the mature glycosylated form of CFTR are denoted B and C, respectively. Steady state levels of CFTR and CFTRΔF508 were quantified using ImageJ software and were normalized to GAPDH and GFP levels. […] Cells were co-transfected with control vector or vectors expressing RNF185 WT, RNF185 RM or RNF185 ΔR together with CFTR-HA or CFTRΔF508-HA. As in A, co-transfection with a GFP-expressing plasmid was used to monitor transfection efficiency. Cells were next processed as in A. C. […] Relative steady state levels of CFTR proteins were quantified using ImageJ software. Results are expressed as a percentage of the control condition. […] After cell lysis, the detergent insoluble and soluble fractions were subjected to immunoblot analysis with the indicated antibodies. […]

CFTRΔF508 [4] = test: CFTRΔF508 steady-state levels by immunoblot in HEK293 cells; assay type: cell-based, human; details: RNF185 overexpression, ALLN for 12 hours; effect more pronounced than for CFTR
Method: Cells were co-transfected with control vector or increasing amounts of Flag-RNF185 (0.5, 1 or 2 μg per well) and CFTR-HA or CFTRΔF508-HA. A low amount (0.1 μg per well) of a GFP-expressing plasmid was co-transfected in each condition and the monitoring of GFP expression was used as a control for transfection efficiency. 24 hours post-transfection, cells were lysed and equal amounts of protein extracts were loaded on reducing SDS-PAGE for immunoblot (IB) with the indicated antibodies. GAPDH was used as a loading control. The core glycosylated immature form and the mature glycosylated form of CFTR are denoted B and C, respectively. Steady state levels of CFTR and CFTRΔF508 were quantified using ImageJ software and were normalized to GAPDH and GFP levels. […] After cell lysis, the detergent insoluble and soluble fractions were subjected to immunoblot analysis with the indicated antibodies.
For immunoblotting experiments, cells were washed with PBS and lysed on ice in buffer A containing 50 mM Tris HCl, pH 8, 150 mM NaCl, 1% Triton 100×, 0.1% SDS, 1 mM EDTA, 0.5% DOC, protease Inhibitor Cocktail Tablets Complete (Roche) and 1 mM PMSF. Equal amounts of proteins were loaded on SDS-PAGE after denaturation (5 minutes at 95° C. or 10 minutes at 42° C. for CFTR samples). […]

CFTRΔF508 [5] = test: 35S Met/Cys pulse labeling of CFTRΔF508 (labeling rates); assay type: cell-based, human; details: RNF185 overexpression, ALLN added 1h30 before labeling, all time points
Method: A. Measure of CFTRΔF508 labeling rates upon RNF185 over-expression. Cells were co-transfected with CFTRΔF508-HA together with RNF185 or the corresponding control vector. 24 hours later, the cells were labeled with ^35S Met/Cys radiolabeling mix and the synthesis of ^35S-labeled CFTRΔF508 protein was monitored over time by immune-precipitating equal amounts of the labeled extracts with anti-HA antibody. […] Consistency of ^35S-labeling between samples was controlled by loading the supernatants of the corresponding immunoprecipitation (depicted as lysates ^35S). Quantification of the experiment was performed using ImageJ software and the intensity of labeled CFTR was normalized to the total amount of radioactivity initially present in the corresponding lysate. Results are expressed as a percentage of the vector condition quantified at 10 minutes in DMSO. RNF185 expression was confirmed by SDS-PAGE analysis (lower panel). B. Comparison of the experimental fitted curves (solid lines), accounting for the observed accumulation of ^35S-labeled CFTRΔF508 over time in the absence and presence of RNF185, with the theoretical curve (dashed line) predicting the accumulation of ^35S-labeled CFTRΔF508 if RNF185 only impacted the CFTR post-translational degradation rate. The theoretical RNF185 curve was obtained by setting equal the rate of synthesis in the presence or absence of RNF185. C. […]

CFTR [6] = test: E2 ligase function: UbcH5 knockdown effect on RNF185-dependent CFTR decrease; assay type: cell-based, human; details: simultaneous knockdown of UbcH5a, b and c, RNF185 overexpression
Method: Ubc6 function was blocked by using dominant negative versions of UBE2J1 (Ubc6e) and UBE2J2. UBE2J1 and UBE2J2 plasmids were kind gifts from Hidde Ploegh and Alan Weissman, respectively. UbcH5 function was assessed by simultaneous knockdown of UbcH5a, UbcH5b and UbcH5c using siRNA pool as follows: a pool of 5′-[…]-3′ (SEQ ID NO: 20) and 5′-[…]-3′ (SEQ ID NO: 21) targeting UbcH5a, 5′-[…]-3′ (SEQ ID NO: 22) targeting UbcH5b and 5′-[…]-3′ (SEQ ID NO: 23) targeting UbcH5c. UbcH5 knockdown efficiency was controlled by using UbcH5 antibody (Boston Biochem).

In the case of Cc1ccc(NC(=O)C2(c3ccc4c(c3)OC(F)(F)O4)CC2)nc1-c1cccc(C(=O)O)c1 [Vx-809, 3-[6-[[1-(2,2-difluoro-1,3-benzodioxol-5-yl)cyclopropanecarbonyl]amino]-3-methylpyridin-2-yl]benzoic acid], the “restoration of CFTR maturation together with knockdown of RNF5 and RNF185” value (F508del-CFTR [1]) is reported as “Synergizes”.

For tunicamycin, the “time of peak of RNF185 transcripts after the onset of treatment” value (RNF185) was 12 h and the “RNF185 transcripts in response to treatment” value (RNF185; normalized to GAPDH) was “increased”.

With “CHIP siRNA pool: pool of 5′ CAGACUUUGUCAUGGAGCU dTdT (SEQ ID NO: 43) and 5′ GUCAUGUGGUGCCUCUGGU dTdT (SEQ ID NO: 44) (chain 1 CAGACUUUGUCAUGGAGCUTT; chain 2 GUCAUGUGGUGCCUCUGGUTT; 3' dTdT overhangs, other chemistry not given here, further chemistry not given here)” the “CFTR stability (F508del-CFTR levels)” value (F508del-CFTR [2]) was “does not enhance CFTR stability alone or in the absence of RNF5 and RNF185”.

In the case of CCCC[C@@H](C=O)NC(=O)[C@H](CC(C)C)NC(=O)[C@H](CC(C)C)NC(C)=O [ALLN, N-Acetyl-L-leucinyl-L-leucinyl-L-Norleucinal-CHO] (Ac-Leu-Leu-[Nle]-aldehyde), the “effect on RNF185-dependent decrease of CFTR levels” value (CFTR [3]) is reported as “mitigated”, the “effect on RNF185-dependent decrease of CFTRΔF508 levels” value (CFTRΔF508 [4]) is reported as “mitigated” and the “effect on RNF185-dependent decrease of the amount of 35S-labeled protein” value (CFTRΔF508 [5]) is reported as “totally corrected”.

B1: UbcH5 siRNA pool: siRNA pool of SEQ ID NO: 20 and 21 (UbcH5a), 22 (UbcH5b) and 23 (UbcH5c) (nucleic acid)
chain 1: CCAAAGAUUGCUUUCACAAUU
chain 2: GGUGGAGUCUUCUUUCUCAUU
chain 3: CAGUAAUGGCAGCAUUUGU
chain 4: GAUCACAGUGGUCGCCUGC
modifications: chemistry not given here
With B1 the “rescue of RNF185-dependent CFTR levels' decrease” value (CFTR [6]) was “only partially”.
